What all share (type): cell-based, human
The subject of assay [1] is MV4;11. The assay is described as follows: Cell growth assay, MV4;11 AML cell line. Conditions: Homo sapiens. As to the method:
(§1) For all other cell lines, compounds were serially diluted in medium and dispensed in triplicate in 96-well plates (0.1% DMSO final for assay) followed by the addition of exponentially growing cells at densities ranging from 5,000 to 30,000 cells/well. Cells were also seeded into 2 additional control wells containing vehicle (0.1% DMSO). […] To determine the estimated cell number in each well, cells that were counted in the control well were diluted 3-fold for an 8-point dilution series, and transferred to 384-well plates in duplicate, 20 μL per well. Cells in all other wells were diluted 4-fold and transferred to 384-well plates in duplicate, 20 μL per well. 20 μL of CellTiter-Glo (Promega) was subsequently added to all wells and luminescence was detected using a SPECTRAmax M3. The control well dilution series was fit to a linear regression and used as a standard for calculating the estimated cell number for each well. For days 7 and 10, total estimated cell number represents the split-adjusted theoretical cell number.

Assay [2] deals with MOLM-14. The assay is described as follows: Cell growth assay, MOLM-14 AML cell line. Particulars: Homo sapiens. The method, then:
as §1

The subject of assay [3] is K562. The assay is described as follows: Cell growth assay, K562 cell line. Conditions: Homo sapiens, K562, 240 h; day 10; lack of activity is taken as evidence of on-target selectivity. As to the method: For all other cell lines, compounds were serially diluted in medium and dispensed in triplicate in 96-well plates (0.1% DMSO final for assay) followed by the addition of exponentially growing cells at densities ranging from 5,000 to 30,000 cells/well. Cells were also seeded into 2 additional control wells containing vehicle (0.1% DMSO). After 3 days, the number of viable cells in one of the control wells was counted by hemocytometer or MOXI Z (Orflo) and an equal volume of cells for all wells were split-back with fresh vehicle/compounds such that the resulting seeding density for the control well was 5,000-30,000 cells/well, matching the initial seeding density in that well. This procedure was repeated on day 7 and day 10. % growth was calculated as % growth=100×(total estimated cell number in well−day 0 starting cell number)/(total average vehicle estimated cell number−day 0 starting cell number). To determine the estimated cell number in each well, cells that were counted in the control well were diluted 3-fold for an 8-point dilution series, and transferred to 384-well plates in duplicate, 20 μL per well. Cells in all other wells were diluted 4-fold and transferred to 384-well plates in duplicate, 20 μL per well. 20 μL of CellTiter-Glo (Promega) was subsequently added to all wells and luminescence was detected using a SPECTRAmax M3. The control well dilution series was fit to a linear regression and used as a standard for calculating the estimated cell number for each well. For days 7 and 10, total estimated cell number represents the split-adjusted theoretical cell number.

The mark [4] stands for this setting: MV4-11, 240 h, day 10, cells passaged, fresh compound added on days 3 and 7, read-out: MV 4;11 GI50 day 10.
Setting [5] is: MV4-11, day 7, fresh compound added on day 3, read-out: MV4;11 GI50 day 7.
Setting [6] is: MOLM-14, 240 h, day 10, cells passaged, fresh compound added on days 3 and 7, read-out: MOL M14 G150 day 10.
[7] abbreviates: MOLM-14, day 7, fresh compound added on day 3, read-out: MOL M14 GI50 day 7.
The mark [8] stands for this setting: MV4-11, 168 h, day 7, printed as symbol, read-out: MV4;11 GI50 day 7.
The mark [9] stands for this setting: MOLM-14, 168 h, day 7, printed as symbol, read-out: MOL M14 GI50 day 7.

Read-outs that look alike come from different tables or passages of the source.

For `CN1CCN([C@H]2CCC3=CC4=CC[C@]5(C)[C@@H](c6ccc7ccncc7c6)CC[C@H]5C45CC[C@]3(C2)O5)CC1` [16B, β-N-methylpiperazine], the GI50 in assay [1] (setting [4]) is 8 nM; in assay [1] (setting [5]), 15 nM; in assay [2] (setting [6]), 9 nM; in assay [2] (setting [7]), 17 nM; in assay [3], > 1000 nM.

With `CN(C)[C@H]1CCC2=CC3=CC[C@]4(C)C(c5ccc6ccncc6c5)=CC[C@H]4[C@@]34CC[C@]2(C1)O4` [23B, β-dimethylamine 17,18-unsaturated isoquinoline], the GI50 in assay [1] (setting [4]) was 35 nM; in assay [2] (setting [6]), 55 nM; in assay [3], > 1000 nM.

As for `C[C@]12CC=C3C=C4CC[C@@H](NS(C)(=O)=O)C[C@]45CCC3(O5)[C@@H]1CC[C@@H]2c1ccc2ccncc2c1` [73A, α-methylsulfonamide], the GI50 in assay [1] (setting [4]) is 90 nM; in assay [2] (setting [6]) it was 200 nM; in assay [3], > 1000 nM.

On to `C[C@]12CC=C3C=C4CC[C@H](NC5CC5)C[C@]45CCC3(O5)[C@@H]1CCC2c1ccc2ccncc2c1` (stereo partly drawn) [39B, β-cyclopropylamine], for which the GI50 in assay [1] (setting [4]) worked out at 17 nM; in assay [2] (setting [6]), 30 nM.

`COCCN(CCOC)[C@H]1CCC2=CC3=CC[C@]4(C)C(c5ccc6ccncc6c5)CC[C@H]4[C@@]34CC[C@]2(C1)O4` (stereo partly drawn) [28B, β-bis-2-methoxyethylamine]: the results for the GI50 in assay [1] (setting [4]) and in assay [2] (setting [6]) were 9.5 nM and 15 nM, respectively.

For `CN(C)[C@H]1CCC2=CC3=CC[C@]4(C)[C@@H](NCc5cccnc5)CC[C@H]4C34CC[C@]2(C1)O4` [46B, β-dimethylamine aminomethylpyridine], the GI50 in assay [1] (setting [8]) and in assay [2] (setting [9]) was > 1000 nM throughout.

For `C[C@]12CC=C3C=C4CC[C@H](N5CCCC5)C[C@]45CC[C@]3(O5)[C@@H]1CC[C@@H]2c1ccc2ccncc2c1` [19B, β-pyrrolidine], the GI50 in assay [1] (setting [4]) came out at 8 nM; in assay [1] (setting [5]), 15 nM; in assay [2] (setting [6]), 10 nM; in assay [2] (setting [7]) it was 16 nM.

Consider `CN(C)[C@H]1CCC2=CC3=CC[C@]4(C)C(c5ccc6[nH]ncc6c5)=CC[C@H]4C34CC[C@]2(C1)O4` [61B, β-dimethylamine 17,18-unsaturated 5-indazole], for which the GI50 in assay [1] (setting [8]) and in assay [2] (setting [9]) was > 1000 nM in each case.

For `CCN(C(C)C)[C@H]1CCC2=CC3=CC[C@]4(C)[C@@H](c5ccc6ccncc6c5)CC[C@H]4[C@@]34CC[C@]2(C1)O4` [34B], the GI50 in assay [1] (MV4-11, 240 h, read-out: MV 4;11 GI50 day 10 (nM)) was found to be 8.5 nM. In addition, the IC50 in assay [2] (MOLM-14, 240 h, read-out: MOL M14 G150 day 10 (nM)) is 15 nM.

With `CN(CC1(C)COC1)[C@H]1CCC2=CC3=CC[C@]4(C)[C@@H](c5ccc6ccncc6c5)CC[C@H]4[C@@]34CCC2(C1)O4` [42B, β-N-methyl-1-(3-methyl-3-oxetanyl)methanamine], the GI50 worked out at 7.5 nM in assay [1] (setting [4]) and 20 nM in assay [2] (setting [6]).

As to `C[C@]12CC=C3C=C4CC[C@H](NS(C)(=O)=O)C[C@]45CCC3(O5)[C@@H]1CC[C@@H]2c1ccc2ccncc2c1` [73B, β-methylsulfonamide], the GI50 in assay [1] (setting [4]) is 150 nM; in assay [2] (setting [6]), 200 nM; in assay [3] it was > 1000 nM.

Regarding `CC(C)N[C@H]1CCC2=CC3=CC[C@]4(C)[C@@H](c5ccc6ccncc6c5)CC[C@H]4[C@@]34CC[C@]2(C1)O4` [32B, β-isopropylamine], the GI50 came to 27 nM in assay [1] (setting [4]) and 55 nM in assay [2] (setting [6]).

Regarding `C[C@]12CC=C3C=C4CC[C@@H](NCC5(O)COC5)CC45CC[C@]3(O5)[C@@H]1CC[C@@H]2c1ccc2ccncc2c1` [72A, α-hydroxyaminomethyloxetane], the GI50 in assay [1] (setting [4]) was found to be 8 nM; in assay [2] (setting [6]) it was 4 nM.

For `CN(C)[C@H]1CCC2=CC3=CC[C@]4(C)C(c5ccc6cn[nH]c6c5)=CC[C@H]4C34CC[C@]2(C1)O4` [58B, β-dimethylamine 17,18-unsaturated 6-indazole], the GI50 in assay [1] (setting [8]) and in assay [2] (setting [9]) was > 1000 nM throughout.

Take `CC1(C)NC(=O)N([C@@H]2CCC3=CC4=CC[C@]5(C)[C@@H](c6ccc7ccncc7c6)CC[C@H]5C45CC[C@]3(C2)O5)C1=O` [74A, α-dimethylhydantoin]: the GI50 is 400 nM in assay [1] (setting [4]), 800 nM in assay [2] (setting [6]) and > 1000 nM in assay [3].

In the case of `CN(C1CC1)[C@H]1CCC2=CC3=CC[C@]4(C)C(c5ccc6ccncc6c5)CC[C@H]4C34CC[C@]2(C1)O4` (stereo partly drawn) [40B, β-Cyclopropylmethylamine], the GI50 came out at 16 nM in assay [1] (setting [4]) and 25 nM in assay [2] (setting [6]).

In the case of `C[C@]12CC=C3C=C4CC[C@H](N5CCOCC5)C[C@]45CCC3(O5)[C@@H]1CC[C@@H]2c1ccc2ccncc2c1` [15B, β-morpholine], the GI50 in assay [1] (setting [4]) was 12 nM; in assay [2] (setting [6]) it was 12.5 nM; in assay [3], > 1000 nM.

For `C[C@]12CC=C3C=C4CC[C@H](NCCS(N)(=O)=O)C[C@]45CCC3(O5)[C@@H]1CC[C@@H]2c1ccc2ccncc2c1` [71B], the figures for the GI50 in assay [1] (setting [4]) and in assay [2] (setting [6]) were 18 nM and 50 nM, respectively.

`C[C@]12CC=C3C=C4CC[C@@H](NCCS(N)(=O)=O)C[C@]45CCC3(O5)[C@@H]1CC[C@@H]2c1ccc2ccncc2c1` [71A]: the values for the GI50 in assay [1] (setting [4]) and in assay [2] (setting [6]) were 2 nM and 20 nM, respectively.

Turning to `CN(CCF)[C@H]1CCC2=CC3=CC[C@]4(C)C(c5ccc6ccncc6c5)CC[C@H]4[C@@]34CC[C@]2(C1)O4` (stereo partly drawn) [29B, β-2-fluoroethylmethylamine], the GI50 in assay [1] (setting [4]) turned out to be 7 nM; in assay [2] (setting [6]), 14 nM.

Take `C[C@]12CC=C3C=C4CC[C@H](N5CC[C@@H](F)C5)C[C@]45CC[C@]3(O5)[C@@H]1CC[C@@H]2c1ccc2ccncc2c1` [35B, β-(R)-3-fluoropyrrolidine]: the results for the GI50 in assay [1] (setting [4]) and in assay [2] (setting [6]) were 80 nM and 160 nM, respectively.

For `C[C@]12CC=C3C=C4CC[C@@H]([N+](C)(C)[O-])CC45CC[C@]3(O5)[C@@H]1CC[C@@H]2c1ccc2ccncc2c1` [14ANO, 14A-N-Oxide], the values for the GI50 in assay [1] (setting [4]) and in assay [2] (setting [6]) were 1.75 nM and 14 nM, respectively.

Regarding `[2H]C([2H])([2H])N([C@H]1CCC2=CC3=CC[C@]4(C)C(c5ccc6ccncc6c5)CC[C@H]4[C@@]34CC[C@]2(C1)O4)C([2H])([2H])[2H]` (stereo partly drawn) [26B, β-deuterodimethylamine], the figures for the GI50 in assay [1] (setting [4]) and in assay [2] (setting [6]) were 4 nM and 6 nM, respectively.

`C[C@]12CC=C3C=C4CC[C@H](N5C[C@H](O)C[C@H]5C(=O)O)C[C@]45CCC3(O5)[C@@H]1CCC2c1ccc2ccncc2c1` (stereo partly drawn) [65B]: the values for the GI50 in assay [1] (setting [4]) and in assay [2] (setting [6]) were 3 nM and 16 nM, respectively.

Consider `C[C@]12CC=C3C=C4CC[C@H](N5[C@H]6CC[C@@H]5CC6)C[C@]45CC[C@]3(O5)[C@@H]1CC[C@@H]2c1ccc2ccncc2c1` [31B, β-7-Azabicyclo[2.2.1]heptane], for which the results for the GI50 in assay [1] (setting [4]) and in assay [2] (setting [6]) were 75 nM and 100 nM, respectively.

For `C[C@]12CC=C3C=C4CC[C@@H](N5CCC5)CC45CC[C@]3(O5)[C@@H]1CC[C@@H]2c1ccc2ccncc2c1` [18A, α-azetidine], the values for the GI50 in assay [1] (setting [4]) and in assay [2] (setting [6]) were 1 nM and 3 nM, respectively.

Turning to `CC(C)(C)N[C@@H]1CCC2=CC3=CC[C@]4(C)C(c5ccc6ccncc6c5)CC[C@H]4C34CC[C@]2(C1)O4` (stereo partly drawn) [43A, α-t-butylamine], the GI50 in assay [1] (setting [4]) came to 175 nM; in assay [2] (setting [6]), 200 nM.

With `CN(C)[C@H]1CCC2=CC3=CC[C@]4(C)C(c5ccc6cnncc6c5)=CC[C@H]4C34CC[C@]2(C1)O4` [55B, β-dimethylamine 17,18-unsaturated phthalazine], the GI50 in assay [1] (setting [8]) and in assay [2] (setting [9]) was > 1000 nM throughout.

The values are drawn from patent US10273241B2 (President and Fellows of Harvard College, priority 2013, dated 2019).
